Measurements: patent US20220378936A1, “DELIVERY SYSTEM COMPLEXES COMPRISING A PRECIPITATE OF AN ACTIVE AGENT AND METHODS OF USE” (THE UNIVERSITY OF NORTH CAROLINA AT CHAPEL HILL, priority 2019, published 2022)

Key:
Hepa1-6 cells = experiment: MTT cytotoxicity assay, Hepa1-6; format: cell-based; conditions: Mus musculus; Hepa1-6, 24 h incubation
Description: (§1) MTT assay was applied to determine in vitro cytotoxicity. CT26 and Hepa1-6 cells (1×10^4/well) were cultured within 96-well plates, respectively. Following one day incubation, 5-Fu, Nano-dUMP and Nano-FdUMP were added to cells for 24 h. […] IC50 was calculated using the GraphPad Prism software.

CT26 cells = experiment: MTT cytotoxicity assay, CT26; format: cell-based; conditions: Mus musculus; CT26, 24 h incubation
Description: as §1

cells = conditions: free FdUMP; cited from earlier work
CT26-FL3 cells = experiment: MTT cytotoxicity assay; format: cell-based, mouse
Description: Cytotoxicity of Nano-Folox was estimated using the MTT assay with 3-(4,5-Dimethylthiazol-2-yl)-2,5-diphenyltetrazolium bromide^60. 10,000 CT26-FL3 cells per well were seeded in 96-well plates and incubated for one day. After incubation, cells were added with OxP and Nano-Folox for 24 h under normal growth conditions. Subsequently, cells were added with 20 μL MTT reagent (5 mg/mL in PBS) and incubated for 4 h at 37° C. 150 μL DMSO were used to dissolve the purple formazan products. The results were measured at 570 nm using a microplate reader. The 50% cell growth inhibition (IC50) was estimated using the GraphPad Prism software.

[1] = Tissue distribution of Nano-Folox in orthotopic CRC mice (IVIS, ICP-MS); format: in vivo, mouse; conditions: 8 h after i.v. administration, 1.5 mg/kg platinum
Description: (§2) The orthotopic CT26-FL3 colorectal tumor model was established as previously described^31.
In addition, — 0.05% (wt) of lipophilic carbocyanine DiD (ThermoFisher) was used to formulate the DiD-labeled Nano-Folox (1.5 mg/kg platinum). Following 8 h i.v. injection of DiD-labeled Nano-Folox, major organs and tumors were collected and analyzed using the IVIS® Kinetics Optical System, with the excitation wavelength at 640 nm and the emission wavelength at 670 nm. The concentration of platinum in major organs and tumors was also measured using ICP-MS^8.

[2] = Pharmacokinetics of platinum in orthotopic CRC mice; format: in vivo, mouse; conditions: single i.v. injection, one-compartmental model
From the text: as §2

[3] = Aqueous solubility of stabilized nanoprecipitates; format: physicochemical; conditions: DOPA-stabilized nanoprecipitates
[4] = Particle size, zeta potential and morphology of Nano-Folox (Malvern Nano-ZS, TEM); conditions: FIG. 2A
Description: The measurements of particle size and zeta potential of Nano-Folox were performed using the Malvern Nano-ZS (Malvern Instruments, UK)^59. The morphology of nanoprecipitates and Nano-Folox was analyzed using transmission electron microscopy (TEM). Briefly, 5 μL Nano-Folox were added on 400-mesh carbon-filmed copper grids (Agar Scientific) for 2 min. The samples were stained with 2% (w/w) uranyl acetate before the analysis using the JEM1230 (JEOL) TEM. Alternatively, the morphology of the core was analyzed without the negative staining.

O=c1[nH]cc(F)c(=O)[nH]1 [5-Fu, 5-fluorouracil]
IC50 (Hepa1-6 cells): ~70 µM | IC50 (CT26 cells): ~70 µM

O=c1[nH]c(=O)n([C@H]2C[C@H](O)[C@@H](COP(=O)(O)O)O2)cc1F [FdUMP, 5-Fluoro-2′-deoxyuridine 5′-monophosphate]
permeability into cells (cells): impermeable into cells

Nc1nc2c(c(=O)[nH]1)N(C=O)C(CNc1ccc(C(=O)N[C@@H](CCC(=O)O)C(=O)O)cc1)CN2 (stereo partly shown) [FnA, folinic acid]
proliferation of CT26-FL3 cells (CT26-FL3 cells; FnA alone, data not shown): not inhibited

O=C1[O][Pt]2([NH][C@@H]3CCCC[C@H]3[NH]2)[O]C1=O [OxP, oxaliplatin]
liver uptake of platinum [1]: ~35 % ID/g | tumor accumulation of platinum [1]: ~15 % ID/g | IC50 (CT26-FL3 cells; 24 h incubation, read-out: IC50 (50% cell growth inhibition)): 24 µM | half-life (t1/2) of platinum [2]: ~8 min

Nc1nc(=O)c2c([nH]1)NCC(CNc1ccc(C(=O)NC3CCC(=O)[O][Pt]4([NH]C5CCCCC5[NH]4)[O]C3=O)cc1)N2C=O (stereo not shown) [Pt(DACH).FnA precipitate, dihydrate(1,2-diaminocyclohexane)platinum(II)-folinic acid]
solubility in water [3]: poorly soluble in water | particle size of the DOPA-stabilized precipitate [4]: ~100 nm
